Active and inactive are the calls of the source. The rule behind the calls is not given here.
Tests used:
[1] = tested on: A549; test: Induction of apoptosis in human A549 cells assessed as presence of apoptotic bodies at 5 to 10 uM after 48 hrs by Hoechst 33258 staining based fluorescence microscopic analysis; assay type: functional, cell-based
[2] = tested on: A549; test: Induction of apoptosis in human A549 cells assessed as mitochondrial membrane potential at 10 uM after 48 hrs by JC-1 staining based flow cytometry (reference value: 92.5%); assay type: functional
[3] = tested on: A549; test: Induction of apoptosis in human A549 cells assessed as mitochondrial membrane potential at 5 uM after 48 hrs by JC-1 staining based flow cytometry (reference value: 92.5%); assay type: functional
[4] = tested on: HeLa; test: Cytotoxicity against human HeLa cells assessed as cell viability after 48 hrs by MTT assay; assay type: functional, cell-based
[5] = tested on: MCF7; test: Cytotoxicity against human MCF7 cells assessed as cell viability after 48 hrs by MTT assay; assay type: functional, cell-based; conditions: MCF7, 48 h
[6] = tested on: A549; test: Cytotoxicity against human A549 cells assessed as cell viability after 48 hrs by MTT assay; assay type: functional, cell-based; conditions: A549, 48 h
[7] = Cytotoxicity against human DU145 cells assessed as cell viability after 48 hrs by MTT assay; assay type: functional, cell-based; conditions: DU-145, 48 h
[8] = tested on: HepG2; test: Cytotoxicity against human HepG2 cells assessed as cell viability after 48 hrs by MTT assay; assay type: functional, cell-based; conditions: HepG2, 48 h
[9] = tested on: A549; test: Cell cycle arrest in human A549 cells assessed as accumulation at sub G1 phase at 5 uM after 48 hrs by propidium iodide staining based flow cytometry (reference value: 0.76%); assay type: functional
[10] = tested on: A549; test: Cell cycle arrest in human A549 cells assessed as accumulation at sub G1 phase at 10 uM after 48 hrs by propidium iodide staining based flow cytometry (reference value: 0.76%); assay type: functional
[11] = tested on: A549; test: Cell cycle arrest in human A549 cells assessed as accumulation at G0/G1 phase at 5 uM after 48 hrs by propidium iodide staining based flow cytometry (reference value: 80.19%); assay type: functional
[12] = tested on: A549; test: Cell cycle arrest in human A549 cells assessed as accumulation at G0/G1 phase at 10 uM after 48 hrs by propidium iodide staining based flow cytometry (reference value: 80.19%); assay type: functional
[13] = tested on: A549; test: Cell cycle arrest in human A549 cells assessed as accumulation at S phase at 5 uM after 48 hrs by propidium iodide staining based flow cytometry (reference value: 3.51%); assay type: functional
[14] = tested on: A549; test: Cell cycle arrest in human A549 cells assessed as accumulation at S phase at 10 uM after 48 hrs by propidium iodide staining based flow cytometry (reference value: 3.51%); assay type: functional
[15] = tested on: A549; test: Cell cycle arrest in human A549 cells assessed as accumulation at G2/M phase at 5 uM after 48 hrs by propidium iodide staining based flow cytometry (reference value: 14.07%); assay type: functional
[16] = tested on: A549; test: Cell cycle arrest in human A549 cells assessed as accumulation at G2/M phase at 10 uM after 48 hrs by propidium iodide staining based flow cytometry (reference value: 14.07%); assay type: functional
[17] = tested on: A549; test: Induction of apoptosis in human A549 cells assessed as cytoplasmic condensation at 5 to 10 uM after 48 hrs by Hoechst 33258 staining based fluorescence microscopic analysis; assay type: functional, cell-based
[18] = tested on: A549; test: Induction of apoptosis in human A549 cells assessed as nuclear fragmentation at 5 to 10 uM after 48 hrs by Hoechst 33258 staining based fluorescence microscopic analysis; assay type: functional, cell-based
[19] = tested on: A549; test: Induction of apoptosis in human A549 cells assessed as viable cells at 5 uM after 48 hrs by Annexin V-FITC/propidium iodide staining based flow cytometry (reference value: 87.93%); assay type: functional; conditions: A549, 48 h, read-out: Activity
[20] = tested on: A549; test: Induction of apoptosis in human A549 cells assessed as viable cells at 10 uM after 48 hrs by Annexin V-FITC/propidium iodide staining based flow cytometry (reference value: 87.93%); assay type: functional; conditions: A549, 48 h, read-out: Activity
[21] = tested on: A549; test: Induction of apoptosis in human A549 cells assessed as early apoptotic cells at 5 uM after 48 hrs by Annexin V-FITC/propidium iodide staining based flow cytometry (reference value: 5.19%); assay type: functional
[22] = tested on: A549; test: Induction of apoptosis in human A549 cells assessed as early apoptotic cells at 10 uM after 48 hrs by Annexin V-FITC/propidium iodide staining based flow cytometry (reference value: 5.19%); assay type: functional
[23] = tested on: A549; test: Induction of apoptosis in human A549 cells assessed as late apoptotic cells at 5 uM after 48 hrs by Annexin V-FITC/propidium iodide staining based flow cytometry (reference value: 5.19%); assay type: functional
[24] = tested on: A549; test: Induction of apoptosis in human A549 cells assessed as late apoptotic cells at 10 uM after 48 hrs by Annexin V-FITC/propidium iodide staining based flow cytometry (reference value: 5.19%); assay type: functional
[25] = tested on: A549; test: Induction of apoptosis in human A549 cells assessed as necrotic cells at 5 uM after 48 hrs by Annexin V-FITC/propidium iodide staining based flow cytometry (reference value: 1.68%); assay type: functional
[26] = tested on: A549; test: Induction of apoptosis in human A549 cells assessed as necrotic cells at 10 uM after 48 hrs by Annexin V-FITC/propidium iodide staining based flow cytometry (reference value: 1.68%); assay type: functional

Compound	Activity [1]	Activity [2]	Activity [3]	IC50 [4]	IC50 [5]	IC50 [6]	IC50 [7]	IC50 [8]	Activity [9]	Activity [10]	Activity [11]	Activity [12]	Activity [13]	Activity [14]	Activity [15]	Activity [16]	Activity [17]	Activity [18]	viability at 5 µM [19]	viability at 10 µM [20]	also measured
CC(C)=CCC/C(C)=C/CC/C(C)=C/CC[C@@H]1[C@@]2(C)CC/C(=N\OCc3cn(-c4ccccc4)nn3)C(C)(C)[C@@H]2CC[C@@]1(C)O	Active	83.5%	88.1%	7.76 µM	9.59 µM	6.16 µM	8.83 µM	9.52 µM	0.9%	1.02%	75.14%	60.11%	2.86%	0.34%	20%	36.97%	Active	Active	84.4%	76.9%	Activity [21]: 5.23%; Activity [22]: 5.4%; Activity [23]: 9.59%; Activity [24]: 16.28%; Activity [25]: 0.81%; Activity [26]: 1.43%
COc1cc(OC)c(-n2cc(CO/N=C3\CC[C@]4(C)[C@@H](CC/C=C(\C)CC/C=C(\C)CCC=C(C)C)[C@](C)(O)CC[C@H]4C3(C)C)nn2)c(OC)c1	Active	84.1%	88.7%	12.8 µM	14.7 µM	8.12 µM	11.1 µM	14.1 µM	0.73%	1.14%	76.47%	65.77%	3%	0.36%	18.52%	31.32%	Active	Active	86%	77.4%	Activity [21]: 4.18%; Activity [22]: 5%; Activity [23]: 8.56%; Activity [24]: 15.83%; Activity [25]: 1.3%; Activity [26]: 1.8%
CC(C)=CCC/C(C)=C/CC/C(C)=C/CC[C@@H]1[C@@]2(C)C/C(=C\c3ccc(OCc4cn(-c5ccccc5)nn4)cc3)C(=O)C(C)(C)[C@@H]2CC[C@@]1(C)O				36.3 µM	23 µM	100 µM	21 µM	126 µM													
COc1cc(OC)c(-n2cc(COc3ccc(/C=C4\C[C@]5(C)[C@@H](CC/C=C(\C)CC/C=C(\C)CCC=C(C)C)[C@](C)(O)CC[C@H]5C(C)(C)C4=O)cc3)nn2)c(OC)c1				17.5 µM	13.5 µM	16.1 µM	12 µM	57.5 µM													

Reference: ChEMBL document CHEMBL3785005, “Novel triazole hybrids of myrrhanone C, a natural polypodane triterpene: Synthesis, cytotoxic activity and cell based studies” (Eur J Med Chem, 2016)
